In US20230371508A1, “COMPOSITIONS AND METHODS FOR KILLING INSECT AND NON-INSECT PESTS” (The United States of America, as represented by the …, priority 2018, published 2023):
In brackets after ≈: the same amount, converted by molar mass. Entries after “also recorded” stand apart in the source; their conditions may differ. Read-outs that look alike come from different tables or passages of the source.

Key:
H. halys nymphs = assay: Nymphicidal toxicity, treated filter paper in glass vial; format: in vivo
Protocol: Toxicities of MB, some compounds of formula 1, and commercial pesticides on H. halys nymphs: The bioassays were carried out in glass vials (20 mL), following a published procedure (Nielsen, A. L., et al., J. Econ. Entomol., 101: 1439-1442 (2008)). Filter paper was cut into round shape pieces (2.4 cm diameter). 50 μL acetone solution of one derivative or commercial pesticide with different concentrations was loaded onto the filter paper evenly, and the filter paper was dried for 1 min and then put into the bottom of vial. A small piece of green bean was put on the filter paper in the vial as food source. Different stages of H. halys nymphs were introduced into the vial and capped with a cotton ball. For each stage, 30 nymphs were used for each amount. For the nymphs of the first instar, 10 nymphs were put into 1 vial. For the nymphs of the second and third instar, 5 nymphs were put into 1 vial. For the nymphs of the fourth instar, 3 nymphs were put into 1 vial. For the nymphs of the fifth instar, 2 nymphs were put into 1 vial. The mortality was assessed after 24 hr.

H. halys eggs = assay: Ovicidal toxicity, direct spray on eggs; format: in vivo; conditions: eggs sprayed, 10 days
From the text: Ovicidal toxicities of MB and some compounds of formula 1: The aqueous solutions of one of the compounds of formula 1 with designated concentrations with different concentrations of active ingredient (AI) were separately stored in glass spray bottles according to a published procedure (Cuthbertson 2014). The eggs (10 for H. halys and 100 for P. xylostella) were laid on filter papers in Petri dishes. Different aqueous insecticidal solutions were sprayed on the surfaces of different eggs three times (˜0.5 mL) to completely cover the treatment areas. Then the Petri dishes were covered with lids and maintained in a fume hood for 10 days. The Petri dishes were then inspected for presence of nymph/larvae development or numbers of unhatched eggs.

S. invicta workers [1] = assay: Fumigant toxicity in sealed glass flask; format: in vivo, Solenopsis invicta; conditions: for mortality at 1.43 µg/mL / LC50: Solenopsis invicta
Protocol: A 250-ml glass flask (the whole volume is 280 ml) was used to house worker ants in fumigant toxicity bioassays. Two micro-liter of acetone solution of the tested compound was applied onto a paraffin film, which was used to seal the flask with ants. The treated spot of the paraffin film faced the inside of the flask. The upper part of the flask was coated with Fluon® to prevent ants from contacting the test material. Two experiments were conducted. […] LC50 value was established using 5 dosages. Each dosage was replicated 3 times for each of 3 colonies. Each replicate consisted of 15 to 26 ants. Ants that could not stand by themselves were considered dead. Dead ants were counted after 24 h.

D. suzukii = assay: Insecticidal activity on larvae and pupae development and adult emergence in pre-infested blueberries (dip); format: in vivo, Drosophila suzukii; conditions: for Adults / Larvae / Pupae: pre-infested berries soaked 2 min in 1% solution, assessed after 10 days at room temperature, mean of three replicates (standard error); for insecticidal toxicity against D. suzukii (in words): 1% concentration on 4 days pre-infested blueberries, 10 days incubation
Protocol: Impacts of MB and other compounds on D. suzukii control: To investigate the acute toxicity of some compounds of formula 1 against D. suzukii, a published procedure was followed (Cuthbertson, A. G. S., et al., Insects, 5: 488-498 (2014)). First, mixed-sex adults D. suzukii (100) were introduced into a plastic cage (30×30×30 cm) and reared on blueberries (100) for 4 days. After that, the infested blueberries were taken out from the cage. Half of the blueberries (50) were dipped in 100 mL aqueous emulsion of each compound listed in Table 1 at 1% concentration for 2 min as treatment, while the other half of the blueberries (50) were dipped in DI water for 2 min as blank control. Then the corresponding blueberries were separately taken out, placed in two different Petri dishes, and allowed to air dry for 2 h. Second, treatment and blank control blueberries were respectively stored in two plastic cups (32 oz) with closed caps and incubated at room temperature for 10 days. The emergence of adults was then subsequently assessed. The developments of larvae and pupae were further inspected by dissection of the treatment and blank control berries. Each treatment and blank control was repeated three times.

L. dispar larvae = assay: Larvicidal toxicity, treated filter paper in Petri dish; format: in vivo; conditions: for LC50 (95% CL): 1st stage larvae, 24 hr; for larvicidal toxicity against L. dispar (in words): in vivo
Protocol: Toxicities of MB and some compounds of formula 1 on L. dispar larvae: The bioassays were carried out in plastic Petri dish loaded with filter paper, following a published procedure (Nielsen 2008). 600 μL acetone solution of one derivative with different concentrations was loaded onto the filter paper (90 mm diameter) evenly, and the filter paper was dried for 2 min and then put into the bottom of Petri dish. 10 L. dispar larvae were put onto the Petri dish and covered with a lid. 30 larvae were used for each amount. The mortality was assessed after 24 hr.

S. invicta workers [2] = conditions: for contact toxicity against S. invicta (in words): in vivo
Protocol: Fire ant bioassays were conducted in USDA, ARS Stoneville laboratory at 25° C., 80% R.H. with a 12:12 (L:D) photoperiod. Contact toxicities of MB and some compounds of formula 1 against fire ants: Topical application was used for contact toxicity bioassay. Only large workers were used for a purpose of relatively uniform body weight and ease of handling. For all compounds, acetone was used as a solvent. The solution was applied using a 0.779 μl capillary tube. Two experiments were conducted for assessing contact toxicity. […] In order to investigate the structure-activity relationship, LD50 values were also established for MB and EB. […] For each LD50 value, 5 doses of benzoates were used. Each dose was replicated 3 times. Each replicate consisted of 13 to 18 ants. Treated ants were placed in a 30-ml capped cup and dead ants were counted after 24 h.

[3] = 24 h, read-out: mean mortality, dosage 1.43 μg/ml, 24 h

Structure (SMILES) | LC50 (95% CL) (H. halys nymphs; 2nd stage nymphs, 24 hr) | LC50 (95% CL) (H. halys eggs) | mortality at 1.43 µg/mL (S. invicta workers [1]; [3]) [%] | Adults (D. suzukii) | Larvae (D. suzukii) | Pupae (D. suzukii) | LC50 (95% CL) (L. dispar larvae) | LD50 (S. invicta workers [2]; colony 1, 24 h) [μg/ant] | LD50 (S. invicta workers [2]; colony 2, 24 h) [μg/ant] | LD50 (S. invicta workers [2]; colony 3, 24 h) [μg/ant] | LC50 (95% CL) (H. halys nymphs; 3rd stage nymphs, 24 hr) | toxicity against H. halys nymphs (in words) (H. halys nymphs; in vivo) | insecticidal toxicity against D. suzukii (in words) (D. suzukii) | other results
COC(=O)c1ccccc1C [M2MB, methyl 2-methylbenzoate] | 0.974 (0.827-1.109) μL/vial | 0.014 (0.005-0.027) mg/cm^2 | 70 to 80 | 0 | 0 | 0 | 0.155 (0.134-0.174) mg/cm^2 | – | – | – | – | – | – | fumigant toxicity against S. invicta (in words) (S. invicta workers [1]; in vivo): significantly reduced
CCCCOC(=O)c1ccccc1 [nBB, n-butyl benzoate] | – | – | 2.34 | 25.3(1.5) | 4.7(1.2) | 15.0(2.9) | 0.276 (0.223-0.393) mg/cm^2 | 77.13 | 68.51 | 50.04 | – | – | – | LC50 (95% CL) (H. halys nymphs; 4th stage nymphs, 24 hr): 3.370 (2.441-6.922) μL/vial; decrease of mean mortality compared with MB (S. invicta workers [1]; dosage 1.43 μg/ml, 24 h): 42 times; contact toxicity against S. invicta (in words) (S. invicta workers [2]): comparable results; also recorded: potent contact toxicities
C/C(=N\C#N)N(C)Cc1ccc(Cl)nc1 [AP, acetamiprid, reference compound] | 0.257 (0.169-0.340) μL/vial | – | – | – | – | – | 0.221 (0.167-0.291) mg/cm^2 | – | – | – | 0.475 (0.301-0.641) μL/vial | – | – | LC50 (95% CL) (H. halys nymphs; 5th stage nymphs, 24 hr): 1.414 (1.165-1.642) μL/vial; LC50 (95% CL) (L. dispar larvae; listed as acetamiprid): 0.221 mg/cm^2
COC(=O)c1ccccc1[N+](=O)[O-] [M2NB, methyl 2-nitrobenzoate] | – | 0.010 (0.002-0.019) mg/cm^2 | 0 | 0 | 0 | 0 | – | – | – | – | – | ineffective | – | larvicidal toxicity against L. dispar (in words) (L. dispar larvae): did not show any toxicities
O=C(OCc1ccccc1)c1ccccc1 [BB, benzyl benzoate] | – | – | – | 40.0(8.4) | 5.7(0.7) | 40.0(5.8) | – | – | – | – | – | deficient toxicities | poor toxicities | LC50 (95% CL) (H. halys nymphs; in vivo): 5.619 (3.028-44.599) μL/vial; contact toxicity against S. invicta (in words) (S. invicta workers [2]): potent contact toxicities; larvicidal toxicity against L. dispar (in words) (L. dispar larvae): did not show any toxicities
CCOC(=O)c1ccccc1 [EB, ethyl benzoate] | – | 0.014 (0.010-0.019) mg/cm^2 | – | 0 | 0 | 0 | 0.115 (0.107-0.123) mg/cm^2 | 164.32 | 129.62 | 126.53 | 1.604 (1.468-1.756) μL/vial | – | – | LC50 (S. invicta workers [1]; 24 h, colony 1, 24 h, read-out: LC50): 0.89 µg/mL (≈ 5.93 µM); LC50 (S. invicta workers [1]; 24 h, colony 2, 24 h, read-out: LC50): 0.76 µg/mL (≈ 5.06 µM); LC50 (S. invicta workers [1]; 24 h, colony 3, 24 h, read-out: LC50): 1.14 µg/mL (≈ 7.59 µM); mortality at 1.43 µg/mL (S. invicta workers [1]; 24 h, dosage 1.43 μg/ml, 24 h, read-out: mean mortality): ~100%; LC50 (S. invicta workers [1]; 24 h, mean over colonies, 24 h, read-out: mean LC50 value): 0.93 µg/mL (≈ 6.19 µM)
CC(COc1ccc(Oc2ccccc2)cc1)Oc1ccccn1 (centres unmarked) [PF, pyriproxyfen, reference compound] | – | – | – | – | – | – | 0.086 (0.057-0.124) mg/cm^2 | – | – | – | 1.798 (1.397-2.797) μL/vial | – | – | LC50 (95% CL) (H. halys nymphs; 5th stage nymphs, 24 hr): 2.700 (1.881-4.836) μL/vial; LC50 (95% CL) (L. dispar larvae; listed as pyriproxyfen): 0.086 mg/cm^2
CC(C)COC(=O)c1ccccc1 [iBB, iso-butyl benzoate] | – | – | – | 24.7(0.9) | 6.0(1.5) | 15.7(1.9) | 0.193 (0.165-0.234) mg/cm^2 | 80.07 | 96.57 | 55.75 | 4.890 (2.845-24.779) μL/vial | deficient toxicities | poor toxicities | –
COC(=O)c1ccccc1Cl [M2CB, methyl 2-chlorobenzoate] | 1.302 (1.137-1.610) μL/vial | 0.011 (0.008-0.013) mg/cm^2 | 70 to 80 | 0 | 0 | 0 | 0.130 (0.097-0.159) mg/cm^2 | – | – | – | – | – | – | LC50 (S. invicta workers [1]; 24 h, colony 1, 24 h): 0.89 µg/mL (≈ 5.22 µM); LC50 (S. invicta workers [1]; 24 h, colony 2, 24 h): 0.77 µg/mL (≈ 4.51 µM); LC50 (S. invicta workers [1]; 24 h, colony 3, 24 h): 0.56 µg/mL (≈ 3.28 µM); mean mortality (S. invicta workers [1]; dosage 1.43 μg/ml, 24 h): 79.4%
CCCOC(=O)c1ccccc1 [nPrB, n-propyl benzoate] | – | – | 79.4 | 3.0(0.6) | 1.7(0.3) | 4.0(0.6) | 0.159 (0.135-0.199) mg/cm^2 | 109.89 | 109.26 | – | 2.591 (2.086-3.839) μL/vial | – | good insecticidal toxicity | increase of mean mortality compared with MB (S. invicta workers [2]; dose 77.9 μg/ant, 24 h): 6 times; mean mortality (S. invicta workers [2]; dose 77.9 μg/ant, 24 h): 45.5%
